The source of these data is patent US7994127B2, “Treatment of rett syndrome” (Massachusetts Institute of Technology, priority 2007, dated 2011).

Structures are written as SMILES. Entries after “also recorded” stand apart in the source; their conditions may differ.

For test [1], the system named is visual cortex of adult MeCP2+/− mice. As to the kind of experiment: Ocular dominance plasticity after monocular deprivation, optical imaging of intrinsic signals. The format is in vivo, mouse.
A further test has as its system MeCP2 KO mice. As to the kind of experiment: Nocturnal activity measurements (infrared beam interruptions). The note with it: for nocturnal locomotor activity, beam interruptions over 10 hours (FIG. 4B): 6 to 17 weeks of age. The format is in vivo, mouse. The protocol: (1-3)IGF-1 treatment: For the survival measurements, the nocturnal activity analysis and the immunoblot analysis, (1-3) IGF-1 (Bachem Biosciences # H22468) was administered daily via intra-peritoneal injections (0.01 mg/g body weight, vehicle=saline, 0.01% BSA). The treatment was started at P15 and maintained throughout the course of the experiments. For intracellular physiology experiments, the mice were injected daily (0.01 mg/g body weight, vehicle=saline, 0.01% BSA) for 2 weeks, from P15 to P28-P32 when they were used for acute slice preparation. For optical imaging experiments, mice were injected with (1-3) IGF-1 (0.02 mg/g body weight, vehicle=saline, 0.01% BSA) daily from the day of the lid suture to the day of imaging. Slice physiology preparation: Coronal sections (300 μm thick) at or near sensorimotor cortex were cut in <4° C. ACSF using a Vibratome. Slices were incubated at 37° C. for 20 minutes after slicing, and at room temperature for the remainder of the experiment. Slices were transferred to a Warner chamber and recordings were taken from visually identified pyramidal neurons located in layer 5. Artificial cerebral spinal fluid (ACSF) contained 126 mM NaCl, 25 mM NaHCO3, 1 mM NaHPO4, 3 mM KCl, 2 mM MgSO4, 2 mM CaCl2, and 14 mM dextrose, was adjusted to 315-320 mOsm and 7.4 pH, and was bubbled with 95% O2/5% CO2. The intracellular pipette solution contained 100 mM potassium gluconate, 20 mM KCl, 10 mM HEPES, 4 mM MgATP, 0.3 mM NaGTP, and 10 mM Na-phosphocreatine. […] Cells were visualized with an Achroplan 40× water-immersion lens with infrared-DIC optics (Zeiss) and detected with an infrared camera (Hamamatsu) projecting to a video monitor. […] Then in current clamp ˜10 pulses (500 ms, 40-140 pA at 10 pA increments), were applied to quantify evoked firing rates and cellular excitability. […] Analysis was performed using a custom software package written in Matlab, with all events detected according to automated thresholds and blindly verified for each event individually by the experimenter. […]

In the next test the test system is tPA. As to the kind of experiment: tPA expression (mRNA, tPA staining) during monocular deprivation. The format is in vivo, mouse. The conditions noted are these: mice subjected to MD and treated. Here is the method:
A: Effects of (1-3)IGF-1 (GPE) treatment on the expression levels of BDNF at mRNA level. […] (1-3)IGF-1 treatment is able to increase expression though not to control levels. The RNA levels were obtained with the micro-array analysis described in Tropea et al., 2006. B: Double staining for NeuN (green) and proBDNF (red) antibody. […] Anti-pro BDNF and anti-NeuN were obtained from CHEMICON and used at a concentration of 1:500. The solutions and time of incubations are the following: preincubation in 5% BSA, 0.1% triton, 10% serum, PBS. Incubation with the primary antibodies was carried out at 4 degrees for 3 days in the following solution: 2% BSA, 5% serum, 0.1% triton, PBS. After washings in PBS secondary biotinylated (for pro-BDNF) or Alexa conjugated (for NeuN) antibodies (1:200) were incubated for 2 hours in the same solution of the primary antibodies. The pro-BDNF labeling was detected by adding extravidine tritc (Sigma—1:300). C: Effects of (1-3)IGF-1 (GPE) treatment on the mRNA expression levels of tPA. […] Anti-tPA was purchased from Oxford Biomedical Research and used at a concentration of 1:500. The conditions for incubation were the following: free floating sections were pre-incubated in blocking solution: 10% serum, 0.3% triton, PBS and then left overnight in the primary antibody mix: 1% serum, 0.3% triton, PBS, anti-tPA 1:500, anti Neu-N 1:500. […]

Another test relates to wild type young mice. The note with it: Tropea et al., 2006; cited from earlier work.

Consider `NCC(=O)N1CCC[C@H]1C(=O)N[C@@H](CCC(=O)O)C(=O)O` [(1-3)IGF-1, glycyl-L-prolyl-L-glutamic acid], for which the “maturation of cortical circuitry during ocular dominance plasticity (FIG. 9B)” value in test [1] ((1-3)IGF-1 as in Example 1) is “promoted to similar degrees”. In test [1] (female MeCP2+/− mice P60 or more, MD 4 days, 0.02 mg/g body weight IP daily during MD), the “ocular dominance plasticity (ODI shift after MD, FIG. 3C-D)” value is on record as “prevented the OD plasticity”. Also, the “nocturnal locomotor activity, beam interruptions over 10 hours (FIG. 4B)” value in the test on MeCP2 KO mice (MeCP2 KO mice, 0.01 mg/g IP daily from P15, vs vehicle KO) is “elevated these levels; also recorded: more active than vehicle-treated KO animals (KO) but not as active as WT”; with MeCP2 KO mice (wild-type mice treated (WT-T) vs WT) it was “failing to increase activity in wild-type animals; also recorded: not significantly more active than WT”. Further, the “nocturnal locomotor activity, beam interruptions over 10 hours (FIG. 6)” value with MeCP2 KO mice (young mice, 4 to 5 weeks of age) is “treatment did not change activity levels”. Further, in the test with tPA, the “tPA protein expression level, tPA staining (FIG. 8D)” value was “strongly increased”. Further, in the test with tPA (vs control and deprived animals), the “tPA mRNA expression (FIG. 8C)” value is “significantly up-regulated tPA mRNA expression relative to both control and deprived animals”. Moreover, in the test on wild type young mice, the OD plasticity result is “abolish OD plasticity”.
